Legend:
OXA-48 [1] = molecular target: T1, OXA-48 (Klebsiella pneumoniae, UniProt Q6XEC0); test: Surface plasmon resonance binding to immobilized 6x-His-OXA-48; set-up: His-tag (N, cleaved yes); made in house; host or cells: E. coli BL21(DE3), pET28a; settings: SPR
Protocol: 6×-His-OXA-48 was capture/amine-coupled on a Ni-NTA Chip at a density of ˜5000 RU. Running buffer was 10 mM HEPES pH 7.4, 150 NaCl, 50 mM NaHCO3, 0.005% Tween-20, 2% DMSO. Concentration gradients of each compound were created from 0-15 μM using OneStep Injections in at least triplicates for meropenem and CDD-97.
(§1) Synthon-derivatives were created, without DNA tags, based on high OXA-48 enrichment and minimal NTC enrichment. The activity of these derivatives was assessed using inhibition assays with purified OXA-48. Compounds were tested for the ability to inhibit OXA-48 from hydrolyzing nitrocefin, a chromogenic β-lactam substrate routinely used in β-lactamase inhibition assays. Nitrocefin contains a conjugated ring system that is readily hydrolyzed and produces a visible color shift from yellow to red upon hydrolysis (O'Callaghan, et al., 1972, Antimicrob. Agents Chemother. 1:283-288). The rate of nitrocefin hydrolysis in the presence of a constant amount of OXA-48 and increasing concentrations of a given compound of interest was monitored at 482 nm. These rates were plotted against compound concentration to determine the inhibition constant (Ki) against OXA-48. Compounds with promising activity were also assessed for binding using surface plasmon resonance (SPR). SPR was performed using 6×-His-OXA-48 enzyme that was amine-coupled on a Ni-NTA Chip. Meropenem, which covalently binds and inhibits OXA-48, was used as a positive control.

OXA-48 [2] = molecular target: T1, OXA-48; test: OXA-48 inhibition assay using nitrocefin as reporter; assay type: biochemical; set-up: His-tag (N, cleaved yes); made in house; host or cells: E. coli BL21(DE3), pET28a
Protocol: Nitrocefin, a chromogenic β-lactam substrate, was used as a reporter in all inhibition assays with the various OXA enzymes and various compounds. Nitrocefin is not stable in aqueous solution long-term. For these assays, nitrocefin stocks were prepared in DMSO, stored at −20° C. and used within 2 weeks of dissolving. To avoid freeze-thawing, fresh stocks were always used. The Km of nitrocefin was determined prior to inhibition assays by performing steady state kinetics. Assays were performed using a DU800 spectrophotometer at room temperature in 50 mM HEPES pH 7.5, 15 mM NaHCO3, and 0.02% tween 20 buffer. Hydrolyzed nitrocefin was detected at 482 nm. For a single experiment, a series of at least 5 nitrocefin concentrations were tested against the given enzyme in duplicate and the initial velocities were measured and fit to the Michaelis-Menten equation. Experiments were repeated twice, and error reported is the standard error of the mean.
Compounds were tested for inhibition of a given OXA enzyme from hydrolyzing nitrocefin using a Tecan plate reader. […] A control with no compound was included in each run. For each compound concentration, the velocity of nitrocefin hydrolysis was determined at 482 nm and fit to the Morrison equation. […] The average Ki of separate experiments, each of which consisted of duplicate runs, is reported and error was quantified as the standard deviation.
as §1, with “The” for “Synthon-derivatives were created, without DNA tags, based on high OXA-48 enrichment and minimal NTC enrichment. The”, “Compounds with promising activity were also assessed for binding using surface plasmon resonance (SPR).” left out

T1 sequence (Q6XEC0 23-265, looked up): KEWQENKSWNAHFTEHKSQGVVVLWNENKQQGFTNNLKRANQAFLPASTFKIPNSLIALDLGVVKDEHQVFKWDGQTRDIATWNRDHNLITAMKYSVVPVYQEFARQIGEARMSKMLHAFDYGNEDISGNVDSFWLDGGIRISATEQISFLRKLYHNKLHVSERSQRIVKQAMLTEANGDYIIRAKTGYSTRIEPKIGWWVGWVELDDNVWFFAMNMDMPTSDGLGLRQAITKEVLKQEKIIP

For `CCOc1ccccc1N1CCN(c2ncnc(N3CCC(C(=O)O)CC3)n2)CC1` [CDD-97, 1-(4-(4-(2-ethoxyphenyl)piperazin-1-yl)-1,3,5-triazin-2-yl)piperidine-4-carboxylic acid], the “KD fold lower (weaker) than that of Meropenem” value (OXA-48 [1]; OXA-48) was ~3 fold, the Kd (OXA-48 [1]; immobilized His-OXA-48) was 1200 ± 4 nM and the “potency/activity against OXA-48 in words” value (OXA-48 [2]; purified OXA-48, compared with CDD-97 where a derivative) was “sub-micromolar Ki”. It also gave a Ki (OXA-48 [2]; purified OXA-48, nitrocefin hydrolysis, Morrison fit) of 530 ± 80 nM.
